Patent US4342753A, “Carboxyalkyl derivatives of rutin poly(H-)sulfate” (American Cyanamid Company, priority 1981, dated 1982)
Where a name gives a salt, the structure may show the parent alone. Read-outs that look alike come from different tables or passages of the source.

Experiments:
[1] = test system: complement activity of sera; test: Guinea Pig Intraperitoneal Test (GPIP); details: Cavia porcellus, ip, 200 mg./kg. i.p., read-out: In vivo Activity (Guinea Pig) Intraperitoneal % Inhibition
Procedure: An active inhibitor protects C2 from C1 and C4; (ii) Cap 50 Test--Here, appropriate amounts of the test compound are added to a pool of guinea pig serum in vitro, after which the undiluted serum capillary tube assay referred to above is run. The concentration of compound inhibiting 50% is reported; and (iii) Guinea Pig Intraperitoneal Test (GPIP)--Guinea pigs weighing about 300 g. are dosed intraperitoneally (i.p.) with 200 mg./kg. of the test compound dissolved in saline and adjusted to pH 7-8. Approximately 0.4 ml. blood samples, […], are collected directly into centrifuge tubes; 5 ml. blood samples, […] beakers. The samples are allowed to clot, centrifuged, and the resultant sera are assayed for complement activity using the capillary complement assay. Percent inhibition are calculated by comparison with simultaneous controls.

[2] = molecular target: T1, activated human C1 (Homo sapiens, UniProt P09871); test: Test Code 026 (C1 inhibitor); assay type: biochemical; details: serial dilutions are twofold; higher well number indicates higher activity
T1 sequence (P09871 16-437 limits assumed): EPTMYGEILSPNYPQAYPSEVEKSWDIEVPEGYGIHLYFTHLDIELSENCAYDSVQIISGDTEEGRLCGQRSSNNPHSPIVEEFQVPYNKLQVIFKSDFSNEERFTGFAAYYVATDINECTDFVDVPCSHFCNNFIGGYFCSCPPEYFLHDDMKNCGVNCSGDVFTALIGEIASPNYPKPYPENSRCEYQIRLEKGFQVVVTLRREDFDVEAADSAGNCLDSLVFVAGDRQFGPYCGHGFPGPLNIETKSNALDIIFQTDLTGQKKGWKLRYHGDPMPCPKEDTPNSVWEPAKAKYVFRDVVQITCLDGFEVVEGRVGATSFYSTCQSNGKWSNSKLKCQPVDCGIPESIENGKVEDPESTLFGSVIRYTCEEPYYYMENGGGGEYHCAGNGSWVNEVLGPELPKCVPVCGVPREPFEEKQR
T1 sequence (P09871 438-688 limits assumed): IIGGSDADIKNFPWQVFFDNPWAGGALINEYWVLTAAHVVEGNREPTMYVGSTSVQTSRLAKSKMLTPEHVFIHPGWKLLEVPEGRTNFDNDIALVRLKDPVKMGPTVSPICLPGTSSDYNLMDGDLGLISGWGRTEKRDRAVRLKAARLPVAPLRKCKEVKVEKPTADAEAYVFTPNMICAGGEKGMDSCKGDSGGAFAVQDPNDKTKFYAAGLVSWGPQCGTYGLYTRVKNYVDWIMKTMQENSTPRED
Procedure: An active inhibitor protects C2 from C1 and C4; (ii) Cap 50 Test--Here, appropriate amounts of the test compound are added to a pool of guinea pig serum in vitro, after which the undiluted serum capillary tube assay referred to above is run. The concentration of compound inhibiting 50% is reported; and (iii) Guinea Pig Intraperitoneal Test (GPIP)--Guinea pigs weighing about 300 g. are dosed intraperitoneally (i.p.) with 200 mg./kg. of the test compound dissolved in saline and adjusted to pH 7-8. Approximately 0.4 ml. blood samples, taken by orbital sinus puncture 30 minutes and one hour after injections, are collected directly into centrifuge tubes; 5 ml. blood samples, taken by decapitation 2 hours after injection are collected directly into beakers. The samples are allowed to clot, centrifuged, and the resultant sera are assayed for complement activity using the capillary complement assay. Percent inhibition are calculated by comparison with simultaneous controls.

[3] = test system: human serum complement; details: in vitro and in vivo; cited from earlier work

Row | In vitro Activity 026 (activity in wells, serial dilution assay) [2] | Compound | inhibition at 200 mg/kg ([1]; Time 2 hours) | inhibition at 200 mg/kg ([1]; Time 6 hours) | inhibition at 200 mg/kg ([1]; Time 24 hours) | anticomplementary activity [3]
1 | 10 wells | C[C@@H]1O[C@@H](OC[C@H]2O[C@@H](Oc3c(-c4ccc(OCC(=O)O)c(OS(=O)(=O)O)c4)oc4cc(OS(=O)(=O)O)cc(OS(=O)(=O)O)c4c3=O)[C@H](OS(=O)(=O)O)[C@@H](OS(=O)(=O)O)[C@@H]2OS(=O)(=O)O)[C@H](OS(=O)(=O)O)[C@H](OS(=O)(=O)O)[C@H]1OS(=O)(=O)O [4'-Carboxymethyl-rutin, nona(H-sulfate)decasodium salt] | 82% | 69% | 18% | –
2 | – | pentosanpolysulfoester | – | – | – | has an anticomplementary activity on human serum, both in vitro and in vivo
3 | 11 wells | C[C@@H]1O[C@@H](OC[C@H]2O[C@@H](Oc3c(-c4ccc(OCC(=O)O)c(OS(=O)(=O)O)c4)oc4cc(OCC(=O)O)cc(OS(=O)(=O)O)c4c3=O)[C@H](OS(=O)(=O)O)[C@@H](OS(=O)(=O)O)[C@@H]2OS(=O)(=O)O)[C@H](OS(=O)(=O)O)[C@H](OS(=O)(=O)O)[C@H]1OS(=O)(=O)O [4',7-Bis(carboxymethyl)rutin, octa(H-sulfate), decasodium salt] | – | – | – | –
